* marks the point of attachment. C16 alkyl = CCCCCCCCCCCCCCCC*
Tests used:
[1] = test system: Rat Bladder Augmentation Model; test: Granuloma quantification (CD68 immunofluorescence) in augmented bladder tissue; assay type: in vivo
Source text: Granulation tissue is composed of several extracellular matrices such as collagen and a variety of immune cell types including lymphocytes, neutrophils, and especially macrophages (refs. 54-56; herein incorporated by reference in their entireties). Extravesical granulomas were found in regenerating bladder muscle and submucosa but not in the epithelial layer (urothelium) that lines the interior of the bladder wall. […] Granulation tissue was identified by a trained Pathologist (M.D.H.) utilizing immunofluorescence imaging with the macrophage marker CD68 (green). […] Images are representative examples of multiple stained tissue samples. See Table 1 for granuloma quantification. Magnification 100× (Scale bar, 200 μm).
(§1) Athymic female rats (weighing ˜200 g and 8-10 weeks old; National Cancer Institute Animal Production Program) underwent bladder augmentation (ref. 15; herein incorporated by reference in its entirety). Athymic rats were chosen for this study to solely examine the innate immune response to inflammation without influence of the adaptive immune response. In order to induce anesthesia, animals were given intraperitoneal injections of 60 mg/kg ketamine and 5 mg/kg xylazine. A second injection consisting of Buprenex (1 mg/kg) was administered subcutaneously to alleviate any pain/discomfort during and following surgical procedures. An approximate 1.5 cm midline vertical skin incision was created to expose the abdominal fascia and muscles. This was immediately followed by the separation of the wall leading to the identification of the bladder. An approximate 70% supratrigonal cystectomy was performed from anterior to posterior creating a clamshell. Immediately prior to bladder augmentation procedures, samples of the pro-inflammatory biological scaffold, small intestinal submucosa (SIS (0.5×0.5 cm); Cook Biotech.) (refs. 12,13,16; herein incorporated by reference in their entireties) were thoroughly dip-coated separately in one of the previously described AIF-PAs following gelation procedures. The sections of SIS were dip-coated for approximately 20 seconds and allowed to adhere to the SIS for an additional 30 seconds. Dip-coating procedures were performed at room temperature in air. The cystectomized bladder defect was then augmented with: 1) SIS (non-AIF-PA coated SIS; n=8 animals over both time-points); 2) AIF-PA1 coated SIS (denoted as SIS/AIF-PA1; n=11 animals over both time-points); 3) AIF-PA2 coated SIS (denoted as SIS/AIF-PA2; n=8 animals over both time-points); 4) AIF-PA3 coated SIS (denoted as SIS/AIF-PA3; n=3); 5) AIF-PA4 coated SIS (denoted as SIS/AIF-PA4; n=3 animals); 6) AIF-PA5 coated SIS (denoted as SIS/AIF-PA5; n=3 animals); and 7) AIFC-PA6 coated SIS (denoted as SIS/AIFC-PA6; n=9 animals over both time-points). The bladder was finally covered with omentum after being closed in a watertight manner utilizing 7-0 polyglactin suture. The abdominal wall was then closed in a single layer with 5-0 ethibond running suture and the skin re-approximated with 9 mm autoclips. Each group was sacrificed at 10 day and 5 week time-points.
Tissue sections comprised of SIS alone, SIS/AIF-PA1, SIS/AIF-PA2, and SIS/AIF-PA6 augmentations were subjected to immunofluorescence staining by initially undergoing antigen retrieval which consisted of 15 min of boiling in citrate buffer (0.01M citrate solution, pH 6.0 with 0.05% Tween-20) followed by cooling at room temperature for approximately 20 minutes. The antibody staining process consisted of a blocking step for 15 min in bovine serum albumin (BSA, 5 mg/ml) followed by a 40 minutes incubation at room temperature with the primary antibody. After washing with DPBS, slides were incubated for 30 min with a secondary antibody and eventually rinsed with DPBS and air dried. Slides were mounted with Vectashield (Vector Laboratories). […]

IL-1β = IL-1β expression in regenerated bladder tissue (immunofluorescence); assay type: in vivo, rat; details: for Cytokine expression (shown as percentage of cells staining positive) Pro-inflammatory IL-1β: 5 weeks post-augmentation, means ± SE; for percentage of cells staining positive for IL-1β: 10 days post-augmentation
Method: as §1
(§2) Tissue sections comprised of SIS alone, SIS/AIF-PA1, SIS/AIF-PA2, and SIS/AIF-PA6 augmentations were subjected to immunofluorescence staining by initially undergoing antigen retrieval which consisted of 15 min of boiling in citrate buffer (0.01M citrate solution, pH 6.0 with 0.05% Tween-20) followed by cooling at room temperature for approximately 20 minutes. The antibody staining process consisted of a blocking step for 15 min in bovine serum albumin (BSA, 5 mg/ml) followed by a 40 minutes incubation at room temperature with the primary antibody. After washing with DPBS, slides were incubated for 30 min with a secondary antibody and eventually rinsed with DPBS and air dried. Slides were mounted with Vectashield (Vector Laboratories). Primary antibodies were directed against epitopes for the inflammatory markers CD68 (macrophage) (refs. 18,19; herein incorporated by reference in their entireties) MPO (neutrophil) (ref. 20; herein incorporated by reference in its entirety) or the inflammation-related proteins IL1β, TNFα, IL-10, IL-13, CD206 (M2 macrophage) (refs. 21-25; herein incorporated by reference in their entireties) and CD86 (M1 macrophage) (ref. 26; herein incorporated by reference in its entirety). Antibodies directed against the ECM in regenerating bladder tissue (including COL4A3 and fibronectin) were also utilized. Alexa Red 555 or FITC conjugated secondary antibodies (Molecular Probes) were utilized for visualization (ref. 15; herein incorporated by reference in its entirety). […]

IL-10 = IL-10 expression in regenerated bladder tissue (immunofluorescence); assay type: in vivo, rat; details: for Cytokine expression (shown as percentage of cells staining positive) Anti-inflammatory IL-10: 5 weeks post-augmentation, means ± SE; for percentage of cells staining positive for IL-10: 10 days post-augmentation
Method: as §1, §2

IL-13 = IL-13 expression in regenerated bladder tissue (immunofluorescence); assay type: in vivo, rat; details: for Cytokine expression (shown as percentage of cells staining positive) Anti-inflammatory IL-13: 5 weeks post-augmentation, means ± SE; for percentage of cells staining positive for IL-13: 10 days post-augmentation
Method: as §1, §2

[2] = test system: Rat Bladder Augmentation Model; test: Bladder stone formation in regenerating bladders; assay type: in vivo; details: for Bladder Stone Formation (shown as percentage of animals forming stones): 5 weeks post-augmentation; for size of bladder stones formed, in words: rat, in vivo
Source text: Bladder stone formation can be caused by a myriad of factors including those based upon diet as well as genetic makeup and underlying bladder conditions (refs. 57,58; herein incorporated by reference in its entirety).
as §1

[3] = test system: Rat Bladder Augmentation Model; test: Lectin labelling of functional blood vessels in regenerated bladder; assay type: in vivo; details: 5W post-augmentation
Method: In order to determine whether blood vessels in regenerating tissue underwent functional angiogenesis, a fluorochrome conjugated tomato lectin was injected into the animals immediately prior to euthanization to label potential angiogenic vessels. […] Magnification 400× (Scale bar, 50 μm).

Substance	Maximum Granuloma Size ([1]; 5W post-augmentation)	Mean Granuloma Size ([1]; 5W post-augmentation)	Minimum Granuloma Size ([1]; 5W post-augmentation)	Number of Granulomas ([1]; 5W post-augmentation)	Number of Large Granulomas (>0.01 mm^2) ([1]; 5W post-augmentation)	granuloma formation, in words ([1]; 5W samples)	Maximum Granuloma Size ([1]; 10D post-augmentation)	Mean Granuloma Size ([1]; 10D post-augmentation)	Minimum Granuloma Size ([1]; 10D post-augmentation)	Number of Granulomas ([1]; 10D post-augmentation)	Number of Large Granulomas (>0.01 mm^2) ([1]; 10D post-augmentation)	granuloma formation, in words ([1]; 10 day samples)	Cytokine expression (shown as percentage of cells staining positive) Pro-inflammatory IL-1β (IL-1β) [percentage]	percentage of cells staining positive for IL-1β (IL-1β) [%]	Cytokine expression (shown as percentage of cells staining positive) Anti-inflammatory IL-10 (IL-10) [percentage]	percentage of cells staining positive for IL-10 (IL-10) [%]	Cytokine expression (shown as percentage of cells staining positive) Anti-inflammatory IL-13 (IL-13) [percentage]	percentage of cells staining positive for IL-13 (IL-13) [%]	Bladder Stone Formation (shown as percentage of animals forming stones) [2] [percentage]	size of bladder stones formed, in words [2]	other results
C16-VVVAAAEEEHDMNKVLDL (SEQ ID NO:2) ({C16 alkyl}-VVVAAAEEEHDMNKVLDL-NH2) [SIS/AIF-PA2, anti-inflammatory peptide amphiphile, tested dip-coated on small intestinal submucosa (SIS) scaffold]	4.08 ± 0.38 10^-3 mm^2	3.00 ± 0.20 10^-3 mm^2	2.09 ± 0.39 10^-3 mm^2	3.00 ± 1.00	0	diminished	11.99 ± 3.62 10^-3 mm^2	5.95 ± 1.16 10^-3 mm^2	2.65 ± 0.17 10^-3 mm^2	4.00 ± 1.00	0.67 ± 0.33	lesser degree of granuloma formation in size and frequency	11.5 ± 2.7	21.2±2.4	33.2 ± 2.3	56.2±3.4	32.0 ± 1.8	41.2±2.2	16.7	a fraction of the size found in control animals	functional angiogenesis of newly formed blood vessels (lectin) [3]: functional, patent blood vessels
C16-VVVAAAEEEKLMSQKMVD (SEQ ID NO:6) ({C16 alkyl}-VVVAAAEEEKLMSQKMVD-NH2) [SIS/AIFC-PA6, reference compound]	14.80 ± 2.30 10^-3 mm^2	6.10 ± 0.51 10^-3 mm^2	2.21 ± 0.30 10^-3 mm^2	7.00 ± 1.08	1.00 ± 0.41	accumulation of granulomas	110.89 ± 1.51 10^-3 mm^2	29.64 ± 0.74 10^-3 mm^2	6.12 ± 0.01 10^-3 mm^2	10.00 ± 1.00	6.00 ± 1.00	large granuloma formation	42.9 ± 1.8	63.3±2.4	21.1 ± 2.1	27.8±3.0	20.4 ± 2.6	28.6±3.0	42.9	quite large in size	–
C16-VVVAAAEEEMQMKKVLDS (SEQ ID NO:1) ({C16 alkyl}-VVVAAAEEEMQMKKVLDS-NH2) [SIS/AIF-PA1, anti-inflammatory peptide amphiphile, tested dip-coated on small intestinal submucosa (SIS) scaffold]	1.62 ± 1.15 10^-3 mm^2	1.26 ± 0.68 10^-3 mm^2	0.97 ± 0.65 10^-3 mm^2	1.75 ± 1.03	0	diminished	23.39 ± 7.66 10^-3 mm^2	8.77 ± 1.32 10^-3 mm^2	2.67 ± 0.15 10^-3 mm^2	4.00 ± 1.00	1.33 ± 0.33	lesser degree of granuloma formation in size and frequency	12.9 ± 2.0	28.2±2.4	30.0 ± 1.6	52.0±3.1	26.1 ± 2.7	48.2±2.8	25.0	a fraction of the size found in control animals	functional angiogenesis of newly formed blood vessels (lectin) [3]: functional, patent blood vessels

From US11161876B2, “Anti-inflammatory nanofibers” (Northwestern University, priority 2015, dated 2021)
